Test results from US9763445B2, “Safened herbicidal compositions comprising a pyridine carboxylic acid herbicide” (Dow AgroSciences, LLC, priority 2014, dated 2017).
Where two headings read alike, the source gives them in different places.

Key:
spring wheat (TRZAS) = experiment: Postemergence greenhouse trial, % visual injury on spring wheat; assay type: in vivo, Triticum aestivum
In short: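 Injury was scored visually (0 = none, 100 = complete kill) 20–22 d after track-sprayer application at 187 L/ha, compared with solvent-sprayed controls. Test plants at the 2–3 true leaf stage; herbicide (g ae/ha) plus cloquintocet-mexyl safener (g ai/ha) in crop-oil-containing spray; expected mixture response by Colby.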

winter rape (BRSNW) = experiment: Postemergence greenhouse trial, % visual injury on winter rape; assay type: in vivo, Brassica napus
In short: (§1)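 Visual injury, 0 (none) to 100 (complete kill), rated 20-22 d after overhead track-sprayer application at 187 L/ha; Colby's equation gave expected mixture responses. Herbicide (g ae/ha) and cloquintocet-mexyl safener (g ai/ha) diluted in aqueous 1.5% v/v Agri-dex, applied to weeds at 2–3 true leaves.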

lambsquarters (CHEAL) = experiment: Postemergence greenhouse trial, % visual injury on lambsquarters; assay type: in vivo, Chenopodium album
In short: as §1

kochia (KCHSC) = experiment: Postemergence greenhouse trial, % visual injury on kochia; assay type: in vivo, Kochia scoparia
In short: (§2)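 Herbicide rates g ae/ha, safener (cloquintocet-mexyl) rates g ai/ha; spray carrier 1.5% v/v crop oil concentrate, 187 L/ha, 2nd–3rd leaf stage. Rating: visual % injury at 20-22 d.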

wild mustard (SINAR) = experiment: Postemergence greenhouse trial, % visual injury on wild mustard; assay type: in vivo, Sinapis arvensis
In short: as §2

[1] = Brassica napus, post-emergence, alone, 35 g/ha, read-out: % visual injury, Ob
[2] = Chenopodium album, post-emergence, alone, 35 g/ha, read-out: % visual injury, Ob

In the case of Nc1c(F)c(-c2ccc3cc[nH]c3c2F)nc(C(=O)O)c1Cl [compound 1], the “% visual injury, Ob” value (spring wheat (TRZAS); alone, 4.375 g/ha) is reported as 13%, the “% visual injury, Ob” value (spring wheat (TRZAS); alone, 8.75 g/ha) is reported as 16% and the “% visual injury, Ob” value (spring wheat (TRZAS); alone, 17.5 g/ha) is reported as 31%. The “% visual injury, Ob” value (spring wheat (TRZAS); alone, 35 g/ha) was 39%, the “% visual injury, Ob” value (spring wheat (TRZAS); alone, 70 g/ha) was 51% and the plant injury at 4.375 g/ha (winter rape (BRSNW); Brassica napus, post-emergence, alone, 4.375 g/ha, read-out: % visual injury, Ob) was 79%. For the same compound, the plant injury at 8.75 g/ha (winter rape (BRSNW); Brassica napus, post-emergence, alone, 8.75 g/ha, read-out: % visual injury, Ob) was 84%, the plant injury at 17.5 g/ha (winter rape (BRSNW); Brassica napus, post-emergence, alone, 17.5 g/ha, read-out: % visual injury, Ob) was 96% and the plant injury at 35 g/ha (winter rape (BRSNW); [1]) was 99%. The plant injury at 70 g/ha (winter rape (BRSNW); Brassica napus, post-emergence, alone, 70 g/ha, read-out: % visual injury, Ob) was 100%, the pest or weed control at 4.375 g/ha (lambsquarters (CHEAL); Chenopodium album, post-emergence, alone, 4.375 g/ha, read-out: % visual injury, Ob) was 86% and the pest or weed control at 8.75 g/ha (lambsquarters (CHEAL); Chenopodium album, post-emergence, alone, 8.75 g/ha, read-out: % visual injury, Ob) was 95%. The pest or weed control at 17.5 g/ha (lambsquarters (CHEAL); Chenopodium album, post-emergence, alone, 17.5 g/ha, read-out: % visual injury, Ob) was 99%, the pest or weed control at 35 g/ha (lambsquarters (CHEAL); [2]) was 100% and the pest or weed control at 70 g/ha (lambsquarters (CHEAL); Chenopodium album, post-emergence, alone, 70 g/ha, read-out: % visual injury, Ob) was 100%. For the same compound, the pest or weed control at 4.375 g/ha (kochia (KCHSC); Bassia scoparia, post-emergence, alone, 4.375 g/ha, read-out: % visual injury, Ob) was 67%, the pest or weed control at 8.75 g/ha (kochia (KCHSC); Bassia scoparia, post-emergence, alone, 8.75 g/ha, read-out: % visual injury, Ob) was 72% and the pest or weed control at 17.5 g/ha (kochia (KCHSC); Bassia scoparia, post-emergence, alone, 17.5 g/ha, read-out: % visual injury, Ob) was 93%. It also gave a pest or weed control at 35 g/ha (kochia (KCHSC); Bassia scoparia, post-emergence, alone, 35 g/ha, read-out: % visual injury, Ob) of 92%, a pest or weed control at 70 g/ha (kochia (KCHSC); Bassia scoparia, post-emergence, alone, 70 g/ha, read-out: % visual injury, Ob) of 97% and a pest or weed control at 4.375 g/ha (wild mustard (SINAR); Brassica, post-emergence, alone, 4.375 g/ha, read-out: % visual injury, Ob) of 85%. It also gave a pest or weed control at 8.75 g/ha (wild mustard (SINAR); Brassica, post-emergence, alone, 8.75 g/ha, read-out: % visual injury, Ob) of 88%, a pest or weed control at 17.5 g/ha (wild mustard (SINAR); Brassica, post-emergence, alone, 17.5 g/ha, read-out: % visual injury, Ob) of 98% and a pest or weed control at 35 g/ha (wild mustard (SINAR); Brassica, post-emergence, alone, 35 g/ha, read-out: % visual injury, Ob) of 99%. For the same compound, the pest or weed control at 70 g/ha (wild mustard (SINAR); Brassica, post-emergence, alone, 70 g/ha, read-out: % visual injury, Ob) was 100%.

In the case of Nc1c(F)c(-c2ccc3cc[nH]c3c2F)nc(C(=O)OCc2ccccc2)c1Cl [compound 2], the “% visual injury, Ob” value (spring wheat (TRZAS); alone, 35 g/ha) is reported as 15%, the “% visual injury, observed (Ob)” value (winter rape (BRSNW); BRSNW, compound 2 4.380 + CQC-m 0 g/ha) is reported as 84% and the “% visual injury, observed (Ob)” value (winter rape (BRSNW); BRSNW, compound 2 8.75 + CQC-m 0 g/ha) is reported as 88%. For the same compound, the “% visual injury, observed (Ob)” value (winter rape (BRSNW); BRSNW, compound 2 17.5 + CQC-m 0 g/ha) was 55%, the “% visual injury, observed (Ob)” value (winter rape (BRSNW); BRSNW, compound 2 35 + CQC-m 0 g/ha) was 100% and the “% visual injury, observed (Ob)” value (winter rape (BRSNW); BRSNW, compound 2 70 + CQC-m 0 g/ha) was 100%. For the same compound, the plant injury at 35 g/ha (winter rape (BRSNW); [1]) was 100%, the “% visual injury, observed (Ob)” value (lambsquarters (CHEAL); CHEAL, compound 2 4.380 + CQC-m 0 g/ha) was 85% and the “% visual injury, observed (Ob)” value (lambsquarters (CHEAL); CHEAL, compound 2 8.75 + CQC-m 0 g/ha) was 95%. For the same compound, the “% visual injury, observed (Ob)” value (lambsquarters (CHEAL); CHEAL, compound 2 17.5 + CQC-m 0 g/ha) was 97%, the “% visual injury, observed (Ob)” value (lambsquarters (CHEAL); CHEAL, compound 2 35 + CQC-m 0 g/ha) was 100% and the “% visual injury, observed (Ob)” value (lambsquarters (CHEAL); CHEAL, compound 2 70 + CQC-m 0 g/ha) was 100%. The pest or weed control at 35 g/ha (lambsquarters (CHEAL); [2]) was 97%, the “% visual injury, observed (Ob)” value (kochia (KCHSC); KCHSC, compound 2 4.380 + CQC-m 0 g/ha) was 93% and the “% visual injury, observed (Ob)” value (kochia (KCHSC); KCHSC, compound 2 8.75 + CQC-m 0 g/ha) was 95%. For the same compound, the “% visual injury, observed (Ob)” value (kochia (KCHSC); KCHSC, compound 2 17.5 + CQC-m 0 g/ha) was 98%, the “% visual injury, observed (Ob)” value (kochia (KCHSC); KCHSC, compound 2 35 + CQC-m 0 g/ha) was 99% and the “% visual injury, observed (Ob)” value (kochia (KCHSC); KCHSC, compound 2 70 + CQC-m 0 g/ha) was 100%. The “% visual injury, observed (Ob)” value (kochia (KCHSC); KCHSC, compound 2 140 + CQC-m 0 g/ha) was 95%, the “% visual injury, observed (Ob)” value (wild mustard (SINAR); SINAR, compound 2 4.380 + CQC-m 0 g/ha) was 94% and the “% visual injury, observed (Ob)” value (wild mustard (SINAR); SINAR, compound 2 8.75 + CQC-m 0 g/ha) was 95%. The “% visual injury, observed (Ob)” value (wild mustard (SINAR); SINAR, compound 2 17.5 + CQC-m 0 g/ha) was 99%, the “% visual injury, observed (Ob)” value (wild mustard (SINAR); SINAR, compound 2 35 + CQC-m 0 g/ha) was 100% and the “% visual injury, observed (Ob)” value (wild mustard (SINAR); SINAR, compound 2 70 + CQC-m 0 g/ha) was 100%.

In the case of CCCCOC(=O)c1nc(-c2ccc3cc[nH]c3c2F)c(F)c(N)c1Cl [compound 9], the “% visual injury, Ob” value (spring wheat (TRZAS); TRZAS, compound 4.380 g/ha, CQC-m 0) is reported as 10%, the “% visual injury, Ob” value (spring wheat (TRZAS); TRZAS, compound 8.75 g/ha, CQC-m 0) is reported as 25% and the “% visual injury, Ob” value (spring wheat (TRZAS); TRZAS, compound 17.5 g/ha, CQC-m 0) is reported as 30%. The “% visual injury, Ob” value (spring wheat (TRZAS); TRZAS, compound 35 g/ha, CQC-m 0) was 50%, the “% visual injury, Ob” value (spring wheat (TRZAS); TRZAS, compound 70 g/ha, CQC-m 0) was 60% and the plant injury at 4.38 g/ha (winter rape (BRSNW); Brassica napus, post-emergence, BRSNW, compound 4.380 g/ha, CQC-m 0, read-out: % visual injury, Ob) was 60%. The plant injury at 8.75 g/ha (winter rape (BRSNW); Brassica napus, post-emergence, BRSNW, compound 8.75 g/ha, CQC-m 0, read-out: % visual injury, Ob) was 60%, the plant injury at 17.5 g/ha (winter rape (BRSNW); Brassica napus, post-emergence, BRSNW, compound 17.5 g/ha, CQC-m 0, read-out: % visual injury, Ob) was 90% and the plant injury at 35 g/ha (winter rape (BRSNW); Brassica napus, post-emergence, BRSNW, compound 35 g/ha, CQC-m 0, read-out: % visual injury, Ob) was 98%. The plant injury at 70 g/ha (winter rape (BRSNW); Brassica napus, post-emergence, BRSNW, compound 70 g/ha, CQC-m 0, read-out: % visual injury, Ob) was 100%, the pest or weed control at 4.38 g/ha (lambsquarters (CHEAL); Chenopodium album, post-emergence, CHEAL, compound 4.380 g/ha, CQC-m 0, read-out: % visual injury, Ob) was 85% and the pest or weed control at 8.75 g/ha (lambsquarters (CHEAL); Chenopodium album, post-emergence, CHEAL, compound 8.75 g/ha, CQC-m 0, read-out: % visual injury, Ob) was 80%. The pest or weed control at 17.5 g/ha (lambsquarters (CHEAL); Chenopodium album, post-emergence, CHEAL, compound 17.5 g/ha, CQC-m 0, read-out: % visual injury, Ob) was 95%, the pest or weed control at 35 g/ha (lambsquarters (CHEAL); Chenopodium album, post-emergence, CHEAL, compound 35 g/ha, CQC-m 0, read-out: % visual injury, Ob) was 100% and the pest or weed control at 70 g/ha (lambsquarters (CHEAL); Chenopodium album, post-emergence, CHEAL, compound 70 g/ha, CQC-m 0, read-out: % visual injury, Ob) was 100%. It also gave a pest or weed control at 4.38 g/ha (kochia (KCHSC); Bassia scoparia, post-emergence, KCHSC, compound 4.380 g/ha, CQC-m 0, read-out: % visual injury, Ob) of 60%, a pest or weed control at 8.75 g/ha (kochia (KCHSC); Bassia scoparia, post-emergence, KCHSC, compound 8.75 g/ha, CQC-m 0, read-out: % visual injury, Ob) of 60% and a pest or weed control at 17.5 g/ha (kochia (KCHSC); Bassia scoparia, post-emergence, KCHSC, compound 17.5 g/ha, CQC-m 0, read-out: % visual injury, Ob) of 85%. It also gave a pest or weed control at 35 g/ha (kochia (KCHSC); Bassia scoparia, post-emergence, KCHSC, compound 35 g/ha, CQC-m 0, read-out: % visual injury, Ob) of 100%, a pest or weed control at 70 g/ha (kochia (KCHSC); Bassia scoparia, post-emergence, KCHSC, compound 70 g/ha, CQC-m 0, read-out: % visual injury, Ob) of 100% and a pest or weed control at 4.38 g/ha (wild mustard (SINAR); Brassica, post-emergence, SINAR, compound 4.380 g/ha, CQC-m 0, read-out: % visual injury, Ob) of 93%. For the same compound, the pest or weed control at 8.75 g/ha (wild mustard (SINAR); Brassica, post-emergence, SINAR, compound 8.75 g/ha, CQC-m 0, read-out: % visual injury, Ob) was 95%, the pest or weed control at 17.5 g/ha (wild mustard (SINAR); Brassica, post-emergence, SINAR, compound 17.5 g/ha, CQC-m 0, read-out: % visual injury, Ob) was 95% and the pest or weed control at 35 g/ha (wild mustard (SINAR); Brassica, post-emergence, SINAR, compound 35 g/ha, CQC-m 0, read-out: % visual injury, Ob) was 100%. For the same compound, the pest or weed control at 70 g/ha (wild mustard (SINAR); Brassica, post-emergence, SINAR, compound 70 g/ha, CQC-m 0, read-out: % visual injury, Ob) was 100%.
